Three molecules from patent US12441743B2, “Spiro aromatic ring compound and use thereof” (Etern Biopharma (Shanghai) Co., Ltd., priority 2018, dated 2025) can be followed below.

Molecules are shown by their SMILES.

Data set [1] can be described thus: Pharmacokinetics experiment, intragastric single dose. The data set is classed as in vivo. To be noted: mouse, plasma, male mice, oral administration dosage 5 mg/Kg; for half-life: read-out: Half-life T1/2 (converted); for Cmax: read-out: Maximum plasma concentration Cmax; for AUC: read-out: Plasma exposure AUC. Here is the method:
Pharmacokinetics of the compound of the disclosure was determined. The following method was used to determine the pharmacokinetic parameters of the compound of the disclosure. Healthy male adult mice were used in the study. Each group was intragastrically administered with a single dose of 5-100 mg/kg. Fasting lasted from 10 hours before administration to 4 hours after administration. Blood samples were collected at different time points after administration and the compound content in plasma was determined by LC-MS/MS. The relationship between plasma concentration and time was analyzed by professional software (winnonlin), and the pharmacokinetic parameters of the compounds were calculated. According to Table 3, the compounds of the disclosure have excellent pharmacokinetic properties.

The test system of the next data set is MV4-11 cells. In words: MV4-11 cell proliferation inhibition experiment (CellTiter-Glo). The data set is classed as cell-based. To be noted: Homo sapiens; MV4-11 cells, 72 h, CellTiter-Glo; read-out: Cell proliferation inhibition activity. Here is the method: The number of living cells in the culture was determined by quantitative determination of intracellular ATP using CellTiter-Glo® Luminescent Cell Viability Assay kit.
In the first step, MV4-11 cells were inoculated into 96-well plates with a density of 2500 cells per well and a volume of 100 μL per well. The plates were placed in 37° C., 5% carbon dioxide incubator overnight.
In the second step, cells were treated with compounds. The compounds to be tested were diluted 3 times, and 8 concentration gradients were set up. Each well was added with a certain volume of DMSO or the compound to be tested, and each concentration was tested in 2 replicates, and the final concentration of DMSO was 0.5%. The plates were placed in 37° C., 5% carbon dioxide incubator for 72 h.
In the third step, cell viability of the control groups and the treatment groups was determined using CellTiter-Glo® Luminescent Cell Viability Assay kit (Promega, G7570). Each well was added with 50 uL CellTiter-Glo. The culture was mixed well, and incubated at room temperature for 10 min. Signals were read using EnSpire (Perkin Elmer). Inhibition percentages (%) were calculated by the following formula:
Inhibition percentage (%)=(1−signal value of compound treatment group/signal value of DMSO treatment group)*100.
For orientation: ATP-based viability assays read luminescence as a measure of living cells.

The next data set addresses T1, SHP2 E76A protein (Homo sapiens, UniProt Q06124, E76A).
T1 sequence (Q06124 1-593 E76A): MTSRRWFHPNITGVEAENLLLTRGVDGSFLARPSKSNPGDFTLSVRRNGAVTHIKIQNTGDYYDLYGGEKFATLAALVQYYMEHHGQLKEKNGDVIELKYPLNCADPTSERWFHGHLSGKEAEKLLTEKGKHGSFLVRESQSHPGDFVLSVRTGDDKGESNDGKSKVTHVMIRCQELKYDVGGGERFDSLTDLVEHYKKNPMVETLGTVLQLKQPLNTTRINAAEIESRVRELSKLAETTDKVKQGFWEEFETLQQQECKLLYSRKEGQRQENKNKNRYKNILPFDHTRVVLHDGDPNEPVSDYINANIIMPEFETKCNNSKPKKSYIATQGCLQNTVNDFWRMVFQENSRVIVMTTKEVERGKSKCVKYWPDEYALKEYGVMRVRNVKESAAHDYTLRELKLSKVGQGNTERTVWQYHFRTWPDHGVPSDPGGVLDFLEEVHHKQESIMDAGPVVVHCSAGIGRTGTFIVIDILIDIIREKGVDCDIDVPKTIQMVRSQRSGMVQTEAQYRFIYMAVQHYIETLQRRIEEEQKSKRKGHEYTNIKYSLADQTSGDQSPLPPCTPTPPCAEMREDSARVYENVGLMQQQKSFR
As to the kind of experiment: SHP2 enzyme activity inhibition test (DiFMUP substrate, fluorescence). The data set is classed as biochemical. To be noted: 50 ng SHP2 E76A, 20 min with compound, then 10 uM DiFMUP 20 min at room temperature.

What is called bioavailability is dose-corrected exposure relative to a reference, in per cent. High values mean much systemic uptake, low ones little systemic uptake. By AUC is commonly meant concentration integrated over time. For `Nc1nccc(Sc2cnc(N3CCC4(CC3)Cc3ncccc3[C@H]4N)n3ccnc23)c1Cl` [Compound 6, (S)-1′-(8-((2-amino-3-chloropyridin-4-yl)thio)imidazo[1,2-c]pyrimidin-5-yl)-5,7-dihydrospiro[cyclopenta[b]pyridine-6,4′-piperidine]-5-amine], in data set [1], the bioavailability turned out to be 37%, the half-life is 3.1 h, the Cmax was 6 µM and the AUC was 35 µM·h. Also, in the data set on MV4-11 cells, the IC50 stood at 4 nM. Also, the IC50 on SHP2 E76A protein came out at 6 nM.
Consider `Nc1nccc(Sc2cnc(N3CCC4(CC3)Cc3nccnc3[C@H]4N)n3ccnc23)c1Cl` [Compound 18, (S)-1′-(8-((2-amino-3-chloropyridin-4-yl)thio)imidazo[1,2-c]pyrimidin-5-yl)-5,7-dihydrospiro[cyclopenta[b]pyrazine-6,4′-piperidine]-5-amine], for which, in data set [1], the bioavailability came out at 72%, the half-life is 3.5 h, the Cmax was 6.5 µM and the AUC worked out at 40 µM·h. Moreover, the IC50 in the data set on MV4-11 cells was 42 nM. Besides, the IC50 at SHP2 E76A protein turned out to be 7 nM.
Regarding `Nc1nccc(Sc2cnc(N3CCC4(CC3)Cc3cccnc3[C@H]4N)n3ccnc23)c1Cl` [Compound 10, (S)-1′-(8-((2-amino-3-chloropyridin-4-yl)thio)imidazo[1,2-c]pyrimidin-5-yl)-5,7-dihydrospiro[cyclopenta[b]pyridine-6,4′-piperidine]-7-amine], in data set [1], the bioavailability came to 51%, the half-life is 3.8 h, the Cmax amounted to 5 µM and the area under the curve (AUC) came to 48 µM·h. In addition, the IC50 in the data set on MV4-11 cells turned out to be 7 nM. For the same molecule, the IC50 on SHP2 E76A protein is 3 nM.
